Data as given in ChEMBL document CHEMBL1201862, “PubChem BioAssay data set” (2004).
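Five compound concentrations were applied to cells in 96-well plates for 48 hours; endpoints were derived by simple linear interpolation of the resulting dose-response curve. Abbreviation: GI50, concentration required for 50% inhibition of growth.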 Calls of active or inactive are those of the source. No stated cut-off is given here; in the data, active = GI50 up to about 1.1 µM and inactive = higher.

What was measured:
Assay in all cases: NCI tumour cell line growth inhibition, 48 h
COLO 205 = test system: COLO 205
OVCAR-8 = test system: OVCAR-8
U-251 = test system: U-251
A549 = test system: A549
HT-29 = test system: HT-29
SK-MEL-2 = test system: SK-MEL-2
HOP-62 = test system: HOP-62
OVCAR-5 = test system: OVCAR-5
SF-539 = test system: SF-539
CCRF-CEM = test system: CCRF-CEM
RXF 393 = test system: RXF 393
SN12C = test system: SN12C
MDA-MB-231 = test system: MDA-MB-231
MDA-N = test system: MDA-N
SF-295 = test system: SF-295
OVCAR-4 = test system: OVCAR-4
MOLT-4 = test system: MOLT-4
SW-620 = test system: SW-620
TK-10 = test system: TK-10
SR = test system: SR

| Compound | GI50 (COLO 205) | GI50 (OVCAR-8) | GI50 (U-251) | GI50 (A549) | GI50 (HT-29) | GI50 (SK-MEL-2) | GI50 (HOP-62) | GI50 (OVCAR-5) | GI50 (SF-539) | GI50 (CCRF-CEM) | GI50 (RXF 393) | GI50 (SN12C) | GI50 (MDA-MB-231) | GI50 (MDA-N) | GI50 (SF-295) | GI50 (OVCAR-4) | GI50 (MOLT-4) | GI50 (SW-620) | GI50 (TK-10) | GI50 (SR) |
| --- | --- | --- | --- | --- | --- | --- | --- | --- | --- | --- | --- | --- | --- | --- | --- | --- | --- | --- | --- | --- |
| Cc1ccc(S(=O)(=O)NC(=O)NCC(N)=O)cc1 | > 100 µM (inactive) | > 100 µM (inactive) | > 100 µM (inactive) | > 100 µM (inactive) | > 100 µM (inactive) | > 100 µM (inactive) | > 100 µM (inactive) | > 100 µM (inactive) | > 100 µM (inactive) | > 100 µM (inactive) | > 100 µM (inactive) | > 100 µM (inactive) | > 100 µM (inactive) | > 100 µM (inactive) | > 100 µM (inactive) | > 100 µM (inactive) | > 100 µM (inactive) | > 100 µM (inactive) | > 100 µM (inactive) |  |
| O=S(=O)(O)c1cc(S(=O)(=O)O)c2c(Nc3ccnc4ccccc34)ccc(S(=O)(=O)O)c2c1 | > 100 µM (inactive) | > 100 µM (inactive) | > 100 µM (inactive) | > 100 µM (inactive) | > 100 µM (inactive) | > 100 µM (inactive) | > 100 µM (inactive) | > 100 µM (inactive) | > 100 µM (inactive) | > 100 µM (inactive) | > 100 µM (inactive) | > 100 µM (inactive) | > 100 µM (inactive) | > 100 µM (inactive) | > 100 µM (inactive) | > 100 µM (inactive) | > 100 µM (inactive) | > 100 µM (inactive) | > 100 µM (inactive) |  |
| Cc1ccc(S(=O)(=O)N(CC(O)COc2ccccc2)c2c(F)c(F)cc(F)c2F)cc1 (stereo not given) | 15.7 µM (inactive) | 22.4 µM (inactive) | 21 µM (inactive) | 21.9 µM (inactive) | 16.8 µM (inactive) | 17.2 µM (inactive) | 21.3 µM (inactive) | 29 µM (inactive) | 20 µM (inactive) | 33.4 µM (inactive) |  | 22.5 µM (inactive) | 18.3 µM (inactive) | 17.2 µM (inactive) | 24 µM (inactive) | 18.7 µM (inactive) | < 0.01 µM (active) | 30.3 µM (inactive) | 32.9 µM (inactive) | 3.53 µM (inactive) |
| N#Cc1ccc(/C=[N+](/C=c2ccc(=C=[N-])cc2)N(CCO)C2=NCCN2)cc1 | > 100 µM (inactive) | > 100 µM (inactive) | > 100 µM (inactive) | > 100 µM (inactive) | > 100 µM (inactive) | > 100 µM (inactive) | > 100 µM (inactive) | > 100 µM (inactive) | > 100 µM (inactive) | > 100 µM (inactive) |  | > 100 µM (inactive) | > 100 µM (inactive) | > 100 µM (inactive) | > 100 µM (inactive) | > 100 µM (inactive) | > 100 µM (inactive) | > 100 µM (inactive) | > 100 µM (inactive) | > 100 µM (inactive) |
| CCN(CC)CCCNc1nc(=O)[nH]c(C)c1C(=O)Nc1c2ccccc2nc2ccccc12 | 8.79 µM (inactive) | 21.7 µM (inactive) | 12.6 µM (inactive) | 4.45 µM (inactive) | 7.41 µM (inactive) | 20.8 µM (inactive) | 24.8 µM (inactive) | 36.2 µM (inactive) | 11.9 µM (inactive) | 5.68 µM (inactive) | 27 µM (inactive) | 15.4 µM (inactive) | 12.9 µM (inactive) | 4.86 µM (inactive) | 5.97 µM (inactive) | 3.96 µM (inactive) | 4.28 µM (inactive) | 21.4 µM (inactive) | 17.1 µM (inactive) |  |
